Laboratory results as given in patent publication USRE38257E1, “Piperdine derivatives and hypotensives containing the same” (Ajinomoto Co., Inc., priority 1988, dated 2003).
Structures can show the parent of a compound that is named as a salt.

System: male spontaneously hypertensive rats
Test: Decrease in systolic blood pressure in spontaneously hypertensive rats after intravenous bolus injection, indirect (tail-cuff) method
Type: in vivo, rat
Settings: for Decrease in systolic blood pressure (mmHg) time after administration (hour) 0.5: 0.5 hour after administration; for Decrease in systolic blood pressure (mmHg) time after administration (hour) 4: 4 hours after administration
Method: As test animals, four male spontaneously hypertensive rats (weight 400 to 440 g) that were sufficiently adapted for feeding and in which hypertension was confirmed were used.
Physiological saline aqueous solution containing 2.5% Nicolle and 2.5% ethanol of sample was intravenously administered by bolus injection at a dose of 1 ml per 1 kg of body weight. Systolic blood pressure after administration was measured by the indirect (tail-cuff) method.

Molecule | Decrease in systolic blood pressure (mmHg) time after administration (hour) 0.5 (dose 10 mg/kg i.v. bolus) [mmHg] | Decrease in systolic blood pressure (mmHg) time after administration (hour) 4 (dose 10 mg/kg i.v. bolus) [mmHg] | also measured
CC(C)C(C#N)(CCCN1CCC(=C2c3ccccc3C=Cc3ccccc32)CC1)c1ccc(Cl)c(Cl)c1.Cl (stereo not drawn) [Example 42, 5-(4-(5H-Dibenzo[a,d]cyclohepten-5-ylidene)-1-piperidinyl)-2-(3,4-dichlorophenyl)-2-isopropylvaleronitrile hydrochloride] | −66 | −14 | –
Cl.O=[N+]([O-])c1ccc2c(c1)CC(CN1CCC(=C3c4ccccc4C=Cc4ccccc43)CC1)C2 (stereo not drawn) [Example 332, 2-(4-(5H-Dibenzo[a,d]cyclohepten-5-ylidene)-1-piperidinyl)methyl-5′-nitroindan hydrochloride] | −111 | −57 | –
Cl.O=C(CCCN1CCC(=C2c3ccccc3C=Cc3ccccc32)CC1)N1CCOCC1 [Example 245, 1-(4-(4-(5H-Dibenzo[a,d]cyclohepten-5-ylidene)-1-piperidinyl)butanoyl)morpholine hydrochloride] | −34 | −10 | –
Cl.O=C(C=Cc1ccccc1)Nc1ccccc1SCCCN1CCC(=C2c3ccccc3C=Cc3ccccc32)CC1 [Example 37, 1-(3-(2-Cinnamoylaminophenylthio)-1-propyl)-4-(5H-dibenzo[a,d]-cyclohepten-5-ylidene)piperidine hydrochloride] | −78 | −36 | –
Cl.Cl.Nc1ccc(C=CCN2CCC(=C3c4ccccc4C=Cc4ccccc43)CC2)cc1 [Example 326, 1-(4-Aminocinnamyl)-4-(5H-Dibenzo[a,d]cyclohepten-5-ylidene)-1-piperidine dihydrochloride] | – | – | Decrease in systolic blood pressure (mmHg) time after administration (hour) 0.5 (dose 1 mg/kg i.v. bolus): −125 mmHg; Decrease in systolic blood pressure (mmHg) time after administration (hour) 4 (dose 1 mg/kg i.v. bolus): −102 mmHg
C1=Cc2ccccc2C(=C2CCN(CCCC3CCCNC3)CC2)c2ccccc21.Cl.Cl (stereo not drawn) [Example 281, 3-(4-(5H-Dibenzo[a,d]cyclohepten-5-ylidene)-1-piperidinyl)-1-(3-piperidinyl)propane dihydrochloride] | −31 | −5 | –
2,6-Dimethyl-4-(4-(4-(5H-Dibenzo[a,d]cyclohepten-5-ylidene)-1-piperidinyl)-1-butyl)-5-methylpyrydine-3,5-dicarboxylate dihydrochloride [Example 288] | −92 | −14 | –
CCOC(=O)C1(CCCCN2CCC(=C3c4ccccc4C=Cc4ccccc43)CC2)CCCCC1.Cl [Example 269, 1-(4-(4-(5H-Dibenzo[a,d]cyclohepten-5-ylidene)-1-piperidinyl)-1-butyl)-1-ethoxycarbonxylcyclohexane hydrochloride] | 143 | −71 | –
C1=Cc2ccccc2C(=C2CCN(CCCCN3CCCCC3)CC2)c2ccccc21 [Example 209, 1-(4-(4-(5H-Dibenzo[a,d]cyclohepten-5-ylidene)-1-piperidinyl)butyl)piperidine dihydroxybutane hydrochloride] | −49 | −13 | –
Cl.O=C(NCCN1CCCCC1=C1c2ccccc2C=Cc2ccccc21)C1CCCCC1 [Example 243, N-(2-(5H-Dibenzo[a,d]cyclohepten-5-ylidene)-1-piperidinyl)ethyl cyclohexanecarboxamide hydrochloride] | −111 | −31 | –
Cl.Fc1ccc(CN2CCC(=C3c4ccccc4C=Cc4ccccc43)CC2)cc1 [Example 113, 4-(5H-Dibenzo[a,d]cyclohepten-5-ylidene)-1-(4-fluorobenzyl)piperidine hydrochloride] | – | – | Decrease in systolic blood pressure (mmHg) time after administration (hour) 0.5 (dose 1 mg/kg i.v. bolus): −151 mmHg; Decrease in systolic blood pressure (mmHg) time after administration (hour) 4 (dose 1 mg/kg i.v. bolus): −81 mmHg
CC(=O)Nc1ccccc1CCCN1CCC(=C2c3ccccc3C=Cc3ccccc32)CC1.Cl.Cl [Example 252, 1-(2-Acetylaminophenyl)-3-(4-(5H-Dibenzo[a,d]cyclohepten-5-ylidene)-1-piperidinyl)propane dihydrochloride] | −23 | −5 | –
COC(=O)c1c(C)nc(CCCCN2CCC(=C3c4ccccc4C=Cc4ccccc43)CC2)c(C(=O)OC)c1C.Cl [Example 323, 2-(4-(4-(5H-Dibenzo[a,d]cyclohepten-5-ylidene)-1-piperidinyl)-1-butyl)-3,4-5,6-tetramethylpyridine-3,5-dicarboxylate hydrochloride] | −117 | −11 | –
CC(=O)Oc1cccc(C=CCN2CCC(=C3c4ccccc4C=Cc4ccccc43)CC2)c1.Cl [Example 368, 1-(3-Acetoxycinnamyl)-4-(5H-Dibenzo[a,d]cyclohepten-5-ylidene)piperidine hydrochloride] | – | – | Decrease in systolic blood pressure (mmHg) time after administration (hour) 0.5 (dose 3 mg/kg i.v. bolus): −110 mmHg; Decrease in systolic blood pressure (mmHg) time after administration (hour) 4 (dose 3 mg/kg i.v. bolus): −68 mmHg
Cl.Fc1ccc(C2(CCCN3CCC(=C4c5ccccc5C=Cc5ccccc54)CC3)OCCO2)cc1 [Example 124] | −90 | −20 | –
C1=Cc2ccccc2C(=C2CCNCC2)c2ccccc21.Cl [Example 349, 4-(5H-Dibenzo[a,d]cyclohepten-5-ylidene)-1-piperidine hydrochloride] | – | – | Decrease in systolic blood pressure (mmHg) time after administration (hour) 0.5 (dose 1 mg/kg i.v. bolus): −48 mmHg; Decrease in systolic blood pressure (mmHg) time after administration (hour) 4 (dose 1 mg/kg i.v. bolus): −43 mmHg
Cc1ccccc1C(=O)N1CCC(=C2c3ccccc3C=Cc3ccccc32)CC1 [Example 190, 4-(5H-Dibenzo[a,d]cyclohepten-5-ylidene)-1-(2-methylbenzoyl)piperidine] | −11 | −15 | –
CC(C)C(C#N)(CCCN1CCC(=C2c3ccccc3C=Cc3ccccc32)CC1)c1cccc(C(F)(F)F)c1.Cl (stereo not drawn) [Example 60, 5-(4-(5H-Dibenzo[a,d]cyclohepten-5-ylidene)-1-piperidinyl)-2-isopropyl-2-(3-trifluoromethylphenyl)valeronitrile hydrochloride] | −121 | −48 | –
COc1ccc(CCCCN2CCC(=C3c4ccccc4C=Cc4ccccc43)CC2)cc1OC.Cl [Example 221, 4-(5H-Dibenzo[a,d]cyclohepten-5-ylidene)-1-(4-(3′,4′-dimethoxyphenyl)butyl)piperidine hydrochloride] | −70 | −13 | –
CCC(=O)Nc1ccc(C=CCN2CCC(=C3c4ccccc4C=Cc4ccccc43)CC2)cc1.Cl [Example 370, 4-(5H-Dibenzo[a,d]cyclohepten-5-ylidene)-1-(4-propanoylaminocinnamyl)piperidine hydrochloride] | −99 | −69 | –
Cl.c1ccc2c(c1)Oc1ccccc1C2=C1CCN(CCCCC2CCCCC2)CC1 [Example 181] | −56 | −27 | –
C1=Cc2ccccc2C(=C2CCN(CCCCCCCC3CCCCC3)CC2)c2ccccc21.Cl [Example 155, 1-Cyclohexyl-7-(4-(5H-dibenzo[a,d]cyclohepten-5-ylidene)-1-piperidinyl)heptane hydrochloride] | −131 | −105 | –
Cl.O=[N+]([O-])c1ccccc1C=CCN1CCC(=C2c3ccccc3C=Cc3ccccc32)CC1 [Example 230, 4-(5H-Dibenzo[a,d]cyclohepten-5-ylidene)-1-(2-nitrocinnamyl)piperidine hydrochloride] | – | – | Decrease in systolic blood pressure (mmHg) time after administration (hour) 0.5 (dose 3 mg/kg i.v. bolus): −131 mmHg; Decrease in systolic blood pressure (mmHg) time after administration (hour) 4 (dose 3 mg/kg i.v. bolus): −91 mmHg
Cl.O=C(CCCN1CCC(=C2c3ccccc3C=Cc3ccccc32)CC1)c1ccco1 [Example 233, 4-(4-(5H-Dibenzo[a,d]cyclohepten-5-ylidene)-1-piperidinyl)-1-(2-furyl)-1-butanone hydrochloride] | −35 | −1 | –
Cl.Nc1cccc2c1CC(CN1CCC(=C3c4ccccc4C=Cc4ccccc43)CC1)C2 (stereo not drawn) [Example 330, 4′-Amino-2-(4-(5H-Dibenzo[a,d]cyclohepten-5-ylidene)-1-piperidinyl)methylindan hydrochloride] | −93 | −25 | –
C1=Cc2ccccc2C(=C2CCN(CCCCC3CCOCC3)CC2)c2ccccc21.Cl [Example 305, 4-(4-(4-(5H-Dibenzo[a,d]cyclohepten-5-ylidene)-1-piperidinyl)-1-butyl)tetrahydropyran hydrochloride] | −95 | −9 | –
COc1ccc(CCC(=O)N2CCC(=C3c4ccccc4C=Cc4ccccc43)CC2)cc1OC [Example 202, 4-(5H-Dibenzo[a,d]cyclohepten-5-ylidene)-1-(3-(3′,4′-dimethoxyphenyl)propanoyl)piperidine] | −54 | −16 | –
